Non-standard residues stand in square brackets, D forms with d. Residues, ends and D or L forms follow the SMILES beside them. *: point of attachment. 1Nal = N[C@@H](Cc1cccc2ccccc12)C(=O)O; Myristoyl = CCCCCCCCCCCCCC(=O)*; Dap = NC[C@H](N)C(=O)O; Sar = CNCC(=O)O
Experiments:
[1] = Pharmacokinetics in vivo after SC administration to mice; details: SC 5 mg/kg
Procedure: Mice were housed at a temperature 22±2° C. under a daily cycle of 12/12 h light/dark (light from 6:00) with free access to water and a standard chow diet St-1 (Mlýn Kocanda, Praha, Czech Republic).
4, 6, 14 and 18 at a dose of 5 mg/kg of body weight (0.2 ml/mouse, n=4). Blood was collected from tails before injection and 0.5, 1, 2, 4, 8, 16 and 24 h after injection. Plasma was separated and stored at −20° C.

[2] = test system: 4-5-week old male C57BL/6 mice; experiment: Growth hormone (GH) release after SC administration to young mice; format: in vivo; details: 10 min after SC 5 mg/kg
Procedure: 4 and 14 at a dose of 5 mg/kg of body weight (0.2 ml/mouse). 10 min after the injection, blood was collected, plasma was prepared and stored at −20° C. until use. GH levels in the plasma samples were determined by Rat/Mouse Growth Hormone ELISA kit (Merck-Millipore, St. Charles, Mo., USA). Ghrelin analogs no.

fed C57BL/6 male mice = experiment: Effect of SC administered ghrelin analogs on food intake; format: in vivo
Procedure: All of the experiments followed the ethical guidelines for animal experiments and Czech Republic law 246/1992 and were approved by the committee for experiments with laboratory animals of the Academy of Sciences of the Czech Republic. Male C57BL/6 mice (Charles River, Germany) were housed at a temperature 22±2° C. under a daily cycle of 12/12 h light/dark (light from 6:00) with free access to water and a standard chow diet St-1 which contained […] of calories from protein, fat and carbohydrate, respectively, and its energy content was 3.4 kcal/g (Mlýn Kocanda, Praha, Czech Republic). Mice were placed into separate cages for one week before experiment, they had free access to water and food pellets. Closely before the experiment, the food pellets were removed from the cages. […] 15 min after the injection, mice were given preweighed food pellets. Food intake was monitored for 8-10 hours at 30-min intervals. Mice had free access to water during the experiment. Experiments were performed at least twice for each tested compound, each experimental group had at least 5 mice.
Data from food intake experiments were analyzed by one-way ANOVA followed by Dunnett's post-hoc test using GraphPad Prism Software (San Diego, Calif., USA), P<0.05 was considered statistically significant. ED50 values were calculated using GraphPad Prism Software as the dose of the tested compound required to elicit half-maximal effect at 250 min after administration of the corresponding compound.
Food intake was monitored for […] after administration of the compounds. ED50 values were determined 250 min after administration. Maximal effect on food intake was evaluated […] after administration of the compounds at a dose of 5 mg/kg of body weight. NT—not tested.

human GHS-R1a receptor = molecular target: T1, human GHS-R1a receptor (Homo sapiens, UniProt Q92847); experiment: Competitive binding studies (displacement of 125I-ghrelin); details: relative to ghrelin = 100
T1 construct: purchased Multispan, Hayward, Calif., USA; host or cells: HEK293T cells, isolated plasma membranes
Procedure: Isolated plasma membranes from the HEK293T cells with transfected human GHS-R1a receptor (Multispan, Hayward, Calif., USA) were used. […] Experiments were carried out in duplicates at least three times. Competitive binding curves were plotted using GraphPad Prism Software (San Diego, Calif., USA) while comparing the best fit for single binding sites models.

T1 sequence (Q92847 whole entry): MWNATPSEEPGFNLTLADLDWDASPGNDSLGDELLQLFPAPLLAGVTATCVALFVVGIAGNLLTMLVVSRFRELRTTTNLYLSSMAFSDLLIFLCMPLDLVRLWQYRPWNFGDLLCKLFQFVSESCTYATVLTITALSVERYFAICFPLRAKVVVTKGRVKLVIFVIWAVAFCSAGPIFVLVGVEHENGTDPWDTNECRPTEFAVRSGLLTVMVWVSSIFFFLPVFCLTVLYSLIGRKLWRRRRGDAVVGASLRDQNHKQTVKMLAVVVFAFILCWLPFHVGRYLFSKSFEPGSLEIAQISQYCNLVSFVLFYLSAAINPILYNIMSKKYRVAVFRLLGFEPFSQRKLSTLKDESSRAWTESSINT

% of ghrelin binding (human GHS-R1a receptor): 57%
SMILES: CCCCCCCCCCCCCC(=O)NC[C@H](NC(=O)[C@H](CO)NC(=O)CNC)C(=O)N[C@@H](Cc1cccc2ccccc12)C(=O)N[C@@H](CC(C)C)C(=O)N[C@@H](CO)C(=O)N1CCC[C@H]1C(=O)N[C@@H](CCC(=O)O)C(=O)N[C@@H](Cc1c[nH]cn1)C(=O)N[C@@H](CCC(N)=O)C(=O)N[C@@H](CCCCN)C(=O)N[C@@H](C)C(=O)N[C@@H](CCC(N)=O)C(=O)N[C@@H](CCC(N)=O)C(=O)N[C@@H](CCCNC(=N)N)C(=O)N[C@@H](CCCCN)C(=O)N[C@@H](CCC(=O)O)C(=O)N[C@@H](CO)C(=O)N[C@@H](CCCCN)C(=O)N[C@@H](CCCCN)C(=O)N1CCC[C@H]1C(=O)N1CCC[C@H]1C(=O)N[C@@H](C)C(=O)N[C@@H](CCCCN)C(=O)N[C@@H](CC(C)C)C(=O)N[C@@H](CCC(N)=O)C(=O)N1CCC[C@H]1C(=O)N[C@@H](CCCNC(=N)N)C(=O)O [Analog 4] (H-[Sar]S[Dap](Myristoyl)[1Nal]LSPEHQKAQQRKESKKPPAKLQPR-OH; N-terminus and C-terminus assumed)
stability in vivo compared with ghrelin or Dpr^3ghrelin [1]: significantly more stable than ghrelin or Dpr^3ghrelin
GH levels in plasma [2]: did not alter the GH levels
maximal effect at 5 mg/kg on food intake (fed C57BL/6 male mice; SC 5 mg/kg, evaluated 480 min after administration): 212.8 % of Dpr^3ghr
orexigenic effect (cumulative food intake), dose dependence (fed C57BL/6 male mice; SC 0.2, 1, 5 and 10 mg/kg, fed mice): dose-dependent orexigenic effect
ED50 (250 min after injection), effect on food intake (fed C57BL/6 male mice; SC, fed mice, 250 min after injection): 6.02 mg/kg
